From US6929810B2, “Preparation of essential oil compositions for portable liquid disinfection” (Council of Scientific and Industrial Research, priority 2001, dated 2005)

System: E. coli
Assay: bore-well method (zone of inhibition)
Format: cell-based
Details: standard antibiotics available in the market

Compound | Zone of Inhibition, Antibiotic
O=C(N[C@H](CO)[C@H](O)c1ccc([N+](=O)[O-])cc1)C(Cl)Cl [Chloromphenilcol] | 35 mm
CN(C)[C@@H]1C(O)=C(C(N)=O)C(=O)[C@@]2(O)C(O)=C3C(=O)c4c(O)cccc4[C@@](C)(O)[C@H]3C[C@@H]12 [Tetracycline] | 24 mm
CC1(C)S[C@@H]2[C@H](NC(=O)[C@H](N)c3ccccc3)C(=O)N2[C@H]1C(=O)O [Ampicillin] | 14 mm
NC[C@H]1O[C@H](O[C@H]2[C@H](O)[C@@H](O[C@H]3O[C@H](CO)[C@@H](O)[C@H](N)[C@H]3O)[C@H](N)C[C@@H]2N)[C@H](O)[C@@H](O)[C@@H]1O [Kanamycin] | 30 mm
Gentamycin | 24 mm
CC[C@H]1OC(=O)[C@H](C)[C@@H](O[C@H]2C[C@@](C)(OC)[C@@H](O)[C@H](C)O2)[C@H](C)[C@@H](O[C@@H]2O[C@H](C)C[C@H](N(C)C)[C@H]2O)[C@](C)(O)C[C@@H](C)C(=O)[C@H](C)[C@@H](O)[C@]1(C)O [Erythromycin] | 10 mm
